Laboratory results: patent publication US6403788B1, “Non-genotoxic metalloporphyrins as synthetic catalytic scavengers of reactive oxygen species” (Eukarion, Inc., priority 2000, dated 2002)

Columns and labels:
[1] = tested on: ΦX 174 DNA Plasmid (Form I); experiment: Cleavage of ΦX 174 DNA plasmid (form I), activation with H2O2; format: biochemical, phage ΦX 174; conditions: for S (single-strand breaks per DNA molecule) / form % I / form % II / form % III: DNA 3.5 nM, H2O2 1 mM
Text: (§1) The DNA cleavage activity was quantified in terms of number of single-strand breaks per DNA molecule according to the equation […], Io=% form I (supercoiled DNA) in the DNA control, and I=% form I in the experiment (see Bernadou et al, Biochemistry, 28: 7268-7275, (1989)). This assay is very sensitive and is able to detect very low levels of DNA activity. S values less than S=1.0 are indicative of very low DNA cleavage activity when the compounds are at a concentration of equal to or less than 1000 nM and KHSO5 is present at a concentration of equal to or less than 100 μM.
(§2) ΦX 174 DNA digestion conditions for standard experiments were as follows: commercially available DNA was diluted to 50 μg/mL in phosphate buffer (10 mM, pH 7.5). The reaction involved 5 μL of ΦX 174 DNA (50 μg/mL, 74.8 μM in base pairs), 5 μL of 40 mM phosphate buffer, pH 7.5 with 400 mM NaCl, 5 μL of metalloporphyrin in double-distilled water or 5 μL of iron-bleomycin complex in double-distilled water, and 5 μL of KHSO5 or 5 μL of H2O2 or 5 μL of ascorbate in double-distilled water. Preincubation of DNA and metalloporphyrins or iron-bleomycin complex was performed for about 15 min. The digestion time in the presence of KHSO5 was 10 min, of H2O2 was 30 min and of ascorbate was 30 min at 20° C. DNA cleavage was monitored by agarose gel electrophoresis. Reactions with KHSO5 were first quenched by 2 μL of 100 mM Hepes buffer, pH 8. In all cases, reactions were quenched by 5 μL of a stopping reagent. The stopping reagent consisted of 250 mM Hepes buffer, pH 7.4, containing 75% glycerol and 0.05% bromophenol blue. Reaction mixtures were then run in 0.8% agarose slab horizontal gel containing ethidium bromide […], at constant current (25 mA for 15h), in 89 mM Tris-borate buffer and 2.5 mM EDTA pH 8.3. Bands were located by WV light (254 nm), photographed, and quantitated by microdensitometry. The correction coefficient 1.47±0.30 was used for decreased stainability of form I DNA vs form II DNA and form III DNA.

[2] = Catalase activity, hydrogen peroxide consumed at 20 minutes; format: biochemical; conditions: over 20 minutes; 10 μM compound, 100 μM hydrogen peroxide, 40 mM sodium phosphate pH 7.4
Experimental: (§3) Catalase activity was measured by incubating the sample compound with hydrogen peroxide and determining the amount of hydrogen peroxide remaining after a period of time using a colorimetric peroxidase-coupled assay method. 10 μM sample compound and 100 μM hydrogen peroxide in 40 mM sodium phosphate pH 7.4 were incubated together at ambient temperature in a multi-well plate. After the desired reaction period had elapsed, 20 μl of peroxidase/ABTS reagent was added (peroxidase/ABTS reagent contained 100 μl of 50 mM Na phosphate, pH 7.4, 1 mg horseradish peroxidase (1310 U/mg) and […]). After five minutes, absorbance at 750 nm was determined. The amount of hydrogen peroxide remaining was calculated based on a standard curve. To compare rates of catalase reaction, the amount of hydrogen peroxide consumed at 20 minutes was determined (See table III). It was also of interest to determine the total number of turnovers completed by the compound before inactivation by hydrogen peroxide. This was assayed under similar conditions, except that 15.8 μM compound was combined with 1582 μM hydrogen peroxide in 5 mM Na phosphate, pH 7.4. Reactions were allowed to proceed to completion and then the amount of hydrogen peroxide remaining was determined as described above. Results showing […] in the turnover assay (nmoles hydrogen peroxide per nmole compound) are also shown in Table III.

[3] = tested on: ΦX 174 DNA Plasmid (Form I); experiment: Cleavage of ΦX 174 DNA plasmid (form I), compound alone or activated with KHSO5; format: biochemical, phage ΦX 174; conditions: for S (single-strand breaks per DNA molecule) / form % I / form % II / form % III: DNA 3.5 nM
Text: as §1, §2

[4] = Peroxidase activity, ABTS oxidation; format: biochemical; conditions: 10 μM compound, 200 μM hydrogen peroxide, 500 μM ABTS, pH 8.1, 740 nm
Experimental: Peroxidase activity was measured by incubating 10 μM compound, 200 μM hydrogen peroxide and 500 μM ABTS in 50 mM sodium phosphate, pH 8.1. The rate of ABTS oxidation was monitored at 740 nm and initial rates (change in absorbance per min.) determined.

[5] = tested on: ΦX 174 DNA Plasmid (Form I); experiment: Cleavage of ΦX 174 DNA plasmid (form I), activation with ascorbate in the presence of air; format: biochemical, phage ΦX 174; conditions: DNA 3.5 nM, Asc. 1 mM
Text: as §1, §2

[6] = Catalase turnover assay, total hydrogen peroxide consumed before inactivation; format: biochemical; conditions: to completion, 15.8 μM compound, 1582 μM hydrogen peroxide, 5 mM Na phosphate pH 7.4
Experimental: as §3

## CC[NH+](CC)CCNS(=O)(=O)c1c(C)cc(C)c(C2=C3C=CC4=[N+]3[Fe-]35[n]6c2ccc6C(c2c(C)cc(C)c(S(=O)(=O)NCC[NH+](CC)CC)c2C)=C2C=CC(=[N+]23)C(c2c(C)cc(C)c(S(=O)(=O)NCC[NH+](CC)CC)c2C)=c2ccc([n]25)=C4c2c(C)cc(C)c(S(=O)(=O)NCC[NH+](CC)CC)c2C)c1C.[Cl-].[Cl-].[Cl-].[Cl-].[Cl-] [Structural Formula V, meso-tetrakis[3-(N-(2-(N,N-diethylammonio)ethyl)aminosulfonyl)-2,4,6-trimethylphenyl]porphyrinato diaqua-iron (III) pentachloride]
[1]; compound 10 nM
  S (single-strand breaks per DNA molecule): 0.01 SSBs
  form % I: 94%
  form % II: 6%
  form % III: 0%
[1]; compound 100 nM
  S (single-strand breaks per DNA molecule): 0 SSBs
  form % I: 95%
  form % II: 5%
  form % III: 0%
[1]; compound 1 μM
  S (single-strand breaks per DNA molecule): 0.16 SSBs
  form % I: 84%
  form % II: 16%
  form % III: 0%
[1]; H2O2 medium
  DNA cleavage activity in H2O2 medium: does not exhibit significant DNA cleavage activity
[2]
  CATALASE* Rate at 20 mins.: 6.4 nmole H2O2/nmole Structural Formula compound
[3]; compound 10 nM, KHSO5 100 μM
  S (single-strand breaks per DNA molecule): 0.01 SSBs
  form % I: 91%
  form % II: 9%
  form % III: 0%
[3]; compound 10 nM, without KHSO5
  S (single-strand breaks per DNA molecule): 0 SSBs
  form % I: 92%
  form % II: 8%
  form % III: 0%
[3]; compound 100 nM, KHSO5 100 μM
  S (single-strand breaks per DNA molecule): 0.03 SSBs
  form % I: 90%
  form % II: 10%
  form % III: 0%
[3]; compound 100 nM, without KHSO5
  S (single-strand breaks per DNA molecule): 0 SSBs
  form % I: 92%
  form % II: 8%
  form % III: 0%
[3]; compound 1 μM, KHSO5 100 μM
  S (single-strand breaks per DNA molecule): 0.07 SSBs
  form % I: 87%
  form % II: 13%
  form % III: 0%
[3]; compound 1 μM, without KHSO5
  S (single-strand breaks per DNA molecule): 0.07 SSBs
  form % I: 87%
  form % II: 13%
  form % III: 0%
[3]; oxidative medium (KHSO5)
  DNA cleavage activity in oxidative medium: do not exhibit any significant DNA cleavage activity
[4]
  PEROXIDASE Initial Rate: 0.0443 change in absorbance per min.
[5]; compound 10 nM
  S (single-strand breaks per DNA molecule): 0.11 SSBs
  form % I: 87%
  form % II: 13%
  form % III: 0%
[5]; compound 100 nM
  S (single-strand breaks per DNA molecule): 0.34 SSBs
  form % I: 75%
  form % II: 25%
  form % III: 0%
[5]; compound 1 μM
  S (single-strand breaks per DNA molecule): 2.76 SSBs
  form % I: 29%
  form % II: 71%
  form % III: 0%
[6]
  CATALASE** H2O2 Consumption: 36.1 nmole H2O2/nmole Structural Formula compound
